Assay results taken from ChEMBL document CHEMBL2007661, “Compounds: GSK PKIS; Assays: UNC Frye lab” (2012).
“And” between values parts separate entries of the source, which are not always exact repeats. Equal values may be shown once.

Key:
[1] = target: T1, Tyrosine-protein kinase Mer (Homo sapiens) (UniProt Q12866); settings: at 10 µM
T1 sequence (whole entry): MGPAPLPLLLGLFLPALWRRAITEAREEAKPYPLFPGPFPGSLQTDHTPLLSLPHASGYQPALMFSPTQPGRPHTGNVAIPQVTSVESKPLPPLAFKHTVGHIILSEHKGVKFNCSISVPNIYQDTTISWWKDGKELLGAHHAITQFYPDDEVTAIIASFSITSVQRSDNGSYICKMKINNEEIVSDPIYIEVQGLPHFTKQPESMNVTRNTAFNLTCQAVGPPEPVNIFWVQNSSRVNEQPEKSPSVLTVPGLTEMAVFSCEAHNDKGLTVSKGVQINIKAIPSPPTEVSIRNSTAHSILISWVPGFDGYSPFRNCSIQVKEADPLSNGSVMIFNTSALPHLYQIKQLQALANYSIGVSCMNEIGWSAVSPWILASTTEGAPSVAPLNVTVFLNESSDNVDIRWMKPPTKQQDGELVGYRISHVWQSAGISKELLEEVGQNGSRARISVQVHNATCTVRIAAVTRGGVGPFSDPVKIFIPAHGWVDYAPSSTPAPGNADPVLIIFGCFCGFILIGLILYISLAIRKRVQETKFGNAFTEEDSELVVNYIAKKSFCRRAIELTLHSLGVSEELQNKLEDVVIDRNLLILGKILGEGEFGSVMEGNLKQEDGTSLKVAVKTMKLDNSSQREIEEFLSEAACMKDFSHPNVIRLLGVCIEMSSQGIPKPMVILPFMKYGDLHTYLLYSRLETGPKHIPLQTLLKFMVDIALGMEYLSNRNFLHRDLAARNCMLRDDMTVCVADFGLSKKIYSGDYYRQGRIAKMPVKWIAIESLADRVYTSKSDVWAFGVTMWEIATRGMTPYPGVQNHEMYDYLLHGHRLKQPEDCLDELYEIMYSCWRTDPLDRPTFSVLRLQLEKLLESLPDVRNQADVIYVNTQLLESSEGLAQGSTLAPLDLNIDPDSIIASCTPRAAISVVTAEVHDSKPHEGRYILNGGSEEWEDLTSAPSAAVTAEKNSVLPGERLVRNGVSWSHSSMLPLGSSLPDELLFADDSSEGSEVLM

[2] = target: T2, Inhibitor of nuclear factor kappa-B kinase subunit alpha (Homo sapiens) (UniProt O15111); settings: at 1 µM
T2 sequence (whole entry): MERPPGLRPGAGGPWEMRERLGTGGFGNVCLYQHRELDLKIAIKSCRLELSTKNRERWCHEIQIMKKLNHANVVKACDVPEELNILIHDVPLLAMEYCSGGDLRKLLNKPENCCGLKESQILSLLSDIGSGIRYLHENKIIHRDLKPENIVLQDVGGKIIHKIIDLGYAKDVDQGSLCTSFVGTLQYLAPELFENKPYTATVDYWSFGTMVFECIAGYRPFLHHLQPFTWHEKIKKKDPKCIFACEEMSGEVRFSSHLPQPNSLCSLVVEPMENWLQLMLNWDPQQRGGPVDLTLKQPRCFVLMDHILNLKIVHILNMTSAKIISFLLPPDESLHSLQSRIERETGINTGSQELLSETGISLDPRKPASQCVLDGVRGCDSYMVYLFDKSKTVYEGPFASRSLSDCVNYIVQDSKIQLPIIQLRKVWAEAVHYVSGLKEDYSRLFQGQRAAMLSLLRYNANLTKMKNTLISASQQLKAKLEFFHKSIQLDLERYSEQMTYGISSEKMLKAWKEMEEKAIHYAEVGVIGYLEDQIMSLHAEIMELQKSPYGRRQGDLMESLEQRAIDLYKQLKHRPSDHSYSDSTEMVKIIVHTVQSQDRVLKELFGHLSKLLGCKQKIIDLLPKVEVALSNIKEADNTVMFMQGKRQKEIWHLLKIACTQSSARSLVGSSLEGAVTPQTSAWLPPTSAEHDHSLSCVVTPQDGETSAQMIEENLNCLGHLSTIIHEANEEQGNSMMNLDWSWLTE

COc1cc(C=NNc2ncnc3c2cnn3-c2ccccc2)ccc1O
inhibition [1]: 0% | inhibition [2]: 12% and 15%

CS(=O)(=O)Nc1cccc(-c2ccc3c(NC(=O)C4CC4)n[nH]c3c2)c1
inhibition [1]: 47% | inhibition [2]: 4% and 3%

Fc1ccc(-c2nn3ccccc3c2-c2ccncc2)cc1
inhibition [1]: -2% | inhibition [2]: 7% and 5%

O=C(NCC1CC1)c1ccc(-c2cccc(C(=O)NC3CC3)c2)cc1
inhibition [1]: 0% | inhibition [2]: -4% and -5%

NS(=O)(=O)c1ccc(N/N=C2\C(=O)Nc3ccc(C(=O)NCCCn4ccnc4)cc32)cc1
inhibition [1]: -4% | inhibition [2]: -3% and -4%

COC(=O)c1ccc2c(c1)C(=Cc1cc(Br)c(O)c(Br)c1)C(=O)N2
inhibition [1]: 5% | inhibition [2]: -7%

NC(=O)c1sc(-n2cnc3ccc(C(F)(F)F)cc32)cc1OCc1ccccc1Br
inhibition [1]: 101% | inhibition [2]: 1% and 0%

Nc1nonc1-c1nc2cnccc2n1C1CC1
inhibition [1]: 48% | inhibition [2]: 29% and 33%

COC(=O)Nc1nc2ccc(S(=O)(=O)c3ccc(NC(=O)Nc4cc(C(F)(F)F)ccc4F)cc3)cc2[nH]1
inhibition [1]: 0% | inhibition [2]: 2% and 3%

O=C(Nc1ccc(Oc2ccc3[nH]c(NC(=O)c4ccccc4)nc3c2)cc1)Nc1cc(C(F)(F)F)ccc1F
inhibition [1]: 78% | inhibition [2]: 11%

CCn1c(-c2nonc2N)nc2ccncc21
inhibition [1]: 32% | inhibition [2]: 4% and 1%

CNC(=O)c1ncccc1Nc1nc(Nc2cc3c(cc2OC)CCCN3C(=O)CN(C)C)nc2[nH]ccc12
inhibition [1]: 77% | inhibition [2]: 6% and 5%

COc1ccc(C2=C(N3CCc4ccccc43)C(=O)NC2=O)cc1
inhibition [1]: 3% | inhibition [2]: 2% and 0%

CC1=C(C(=O)Nc2ccc3[nH]ncc3c2)C(c2ccc(Cl)c(Cl)c2)CC(=O)N1 (stereo unspecified)
inhibition [1]: 3% | inhibition [2]: 6% and -8%

CCn1c(-c2nonc2N)nc2cnc(Oc3cccc(NC(=O)c4ccc(N(C)C)cc4)c3)cc21
inhibition [1]: -6% | inhibition [2]: 5% and 9%

CS(=O)(=O)Nc1ccc(-c2cc(-c3ccccc3)cc(C(N)=O)c2N)cc1
inhibition [1]: -2% | inhibition [2]: -1% and -3%

COC(=O)Nc1nc2ccc(Oc3ccc(NC(=O)Nc4cccc(Cl)c4)cc3)cc2[nH]1
inhibition [1]: 2% | inhibition [2]: -3% and -2%

Nc1ncnc2occ(-c3ccc(NC(=O)Nc4cccc(C(F)(F)F)c4)cc3)c12
inhibition [1]: 43% | inhibition [2]: 3%

CC1(C)CC(n2cnc(-c3ccc(F)cc3)c2-c2ccnc(N)n2)CC(C)(C)N1
inhibition [1]: -5% | inhibition [2]: 3%

CS(=O)(=O)CCNCc1nc(-c2ccc3ncnc(Nc4ccc(OCc5cccc(C(F)(F)F)c5)cc4)c3c2)cs1
inhibition [1]: -6% | inhibition [2]: -9% and 5%

NS(=O)(=O)c1ccc(N/N=C2\C(=O)Nc3ccc(C(=O)NCc4ccncc4)cc32)cc1
inhibition [1]: -8% | inhibition [2]: 0%

CS(=O)(=O)CCNCc1ccc(-c2ccc3ncnc(Nc4ccc(OCc5ccccc5)cc4)c3c2)o1
inhibition [1]: -3% | inhibition [2]: 3%

COc1cccc(-n2nc(C)c3c(N/N=C(\C)c4ccncc4)ncnc32)c1
inhibition [1]: -8% | inhibition [2]: 7% and 6%
